*: point of attachment. 5FAM = O=C1OC2(c3ccc(O)cc3Oc3cc(O)ccc32)c2ccc(C(=O)*)cc21
Columns and labels:
Assay type in all cases: biochemical, Human
[1] = test system: MMP in the MDA-MB-231-derived extracellular vesicles; assay: Digital detection of MDA-MB-231-derived extracellular vesicles through MMP activity in wells (SB substrates); conditions: for Expected value λ / Number of positives / Positive ratio: 6 h; for Extracellular vesicle concentration / Expected value λ (×1): Example 35, 6 h; for Extracellular vesicle concentration: at a concentration of x1, 50 fL; for Expected value λ (×1): from power approximation equation
Procedure: The concentration of the solution is 10 μg/mL. […] The solution was further diluted 2-fold to prepare a standard sample at a concentration of x1/4, further diluted 3-fold to prepare a standard sample at a concentration of x1/12, and further diluted 3-fold to prepare a standard sample at a concentration of x1/36. Thus, the standard samples with four concentrations were prepared.
In addition, 1 mM Alexa Fluor 647 was used as a standard fluorescent substance, and each of the MMP14 detection solutions contained the standard fluorescent substance at a final concentration of 2 μM.
(§1) 50 μL of each of the MMP detection solutions was added to 50 μL of each of the samples, a reaction was performed at 30° C., and MMP activity was evaluated.

[2] = test system: MMP in the MDA-MB-231-derived extracellular vesicles; assay: Evaluation of MMP activity of MDA-MB-231-derived extracellular vesicles with 96-well plate (SensoLyte 520 MMP Substrate Sampler Kit); conditions: for Fluorescence change after 1 hour of reaction at 30° C.: Example 34, EV 4 μg/mL, reporter 5 μM, buffer (4); for Fluorescence change after 2 hours of reaction at 30° C.: MP, EV 3.3 μg/mL
Procedure: (§2) 50 μL of the MMP detection solution was added to 50 μL of each of the samples, a reaction was performed at 30° C., and MMP activity was evaluated.
as §1

[3] = test system: MMP in the A549-derived extracellular vesicles; assay: Evaluation of MMP activity of A549-derived extracellular vesicles with 96-well plate (SensoLyte 520 MMP Substrate Sampler Kit); conditions: Example 34, EV 4 μg/mL, reporter 5 μM, buffer (4)
Procedure: The MMP14 activity was evaluated with a 96-well plate (manufactured by Thermo Fisher Scientific Inc., model number: 137101). A fluorescence intensity was measured with a fluorescence plate reader (Synergy MX, manufactured by BioTek Instruments, Inc.) at […] every 5 min for 1 hour. For measurement wavelengths, an excitation wavelength of 485±20 nm and a fluorescence wavelength of 528±20 nm were used.
as §2

[4] = test system: MMP in the A549-derived extracellular vesicles; assay: Digital detection of A549-derived extracellular vesicles through MMP activity in wells (SB substrates); conditions: for Extracellular vesicle concentration: at a concentration of x1, 50 fL; for Expected value λ / Number of positives / Positive ratio: Example 36, EV 5 μg/mL, reporter 5 μM, 30° C.
Procedure: The concentration of the solution is 10 μg/mL.
50 μL of each of the MMP detection solutions was added to 50 μL of the sample to provide a reaction solution for wells.

[5] = Example 35, 30° C., EV 0 (free of extracellular vesicles, pseudopositive)
[6] = Example 35, 30° C., EV 1/4 a.u.
[7] = Example 35, 30° C., EV 1/12 a.u.
[8] = Example 35, 30° C., EV 1/36 a.u.
[9] = Example 35, reporter 5 μM, 30° C., EV 1/2 a.u. (5 μg/mL in reaction solution)
[10] = 1.25 μM with 1.25 μM Custom #2T

Row | Substance | Expected value λ [1, 5] | Number of positives [1, 5] | Positive ratio [1, 5] | Expected value λ [1, 6] | Number of positives [1, 6] | Positive ratio [1, 6] | Expected value λ [1, 7] | Number of positives [1, 7] | Positive ratio [1, 7] | Expected value λ [1, 8] | Number of positives [1, 8] | Positive ratio [1, 8] | Extracellular vesicle concentration [1] [mL⁻¹] | Expected value λ (×1) [1] | Expected value λ [1, 9] | Number of positives [1, 9] | Positive ratio [1, 9] | Fluorescence change after 1 hour of reaction at 30° C. [2] | Fluorescence change after 2 hours of reaction at 30° C. [2, 10] | Fluorescence change after 2 hours of reaction at 30° C. ([2]; 5 μM with 5 μM Custom #2T) | other results
1 | QXL520-Pro-Leu-Ala-Leu-Trp-Ala-Arg-Lys(5-FAM)-NH2 (QXL520-PLALWARK(5FAM)-NH2) [SB2] | 3.56E−05 | 1 | 3.56E−05 | 0.3545 | 8,382 | 0.2985 | 0.1011 | 2,699 | 0.09612 | 0.02931 | 811 | 0.02888 | 5.3e+10 | 2.6406 | 1.326 | 20,623 | 0.7344 | 32,088 ΔRFU | 21,733 ΔRFU | 31,832 ΔRFU | Fluorescence change after 1 hour of reaction at 30° C. [3]: 1,154 ΔRFU; Expected value λ (×1) ([4]; Example 36, 4 hr): 0.1343; Extracellular vesicle concentration ([4]; Example 36, 4 hr): 2.685e+09 mL⁻¹; Expected value λ (×1) ([4]; Example 36, 24 hr): 0.00799; Extracellular vesicle concentration ([4]; Example 36, 24 hr): 1.599e+08 mL⁻¹; Expected value λ ([4]; 4 hr): 0.06712; Number of positives ([4]; 4 hr): 1,823; Positive ratio ([4]; 4 hr): 0.06492; Expected value λ ([4]; 24 hr): 0.004; Number of positives ([4]; 24 hr): 112; Positive ratio ([4]; 24 hr): 0.00399
2 | QXL520-Pro-Tyr-Ala-Tyr-Trp-Met-Arg-Lys(5-FAM)-NH2 (QXL520-PYAYWMRK(5FAM)-NH2) [SB7] | 0.000107 | 3 | 0.000107 | 0.3689 | 8,663 | 0.3085 | 0.03574 | 986 | 0.03511 | 0.01933 | 536 | 0.01914 | 6.8e+10 | 3.4196 | 1.56 | 22,181 | 0.7899 | 39,031 ΔRFU | 28,167 ΔRFU | 32,014 ΔRFU | Fluorescence change after 1 hour of reaction at 30° C. [3]: 1,228 ΔRFU; Expected value λ (×1) ([4]; Example 36, 4 hr): 0.02833; Extracellular vesicle concentration ([4]; Example 36, 4 hr): 5.667e+08 mL⁻¹; Expected value λ (×1) ([4]; Example 36, 24 hr): 0.00264; Extracellular vesicle concentration ([4]; Example 36, 24 hr): 5.274e+07 mL⁻¹; Expected value λ ([4]; 4 hr): 0.01417; Number of positives ([4]; 4 hr): 395; Positive ratio ([4]; 4 hr): 0.01407; Expected value λ ([4]; 24 hr): 0.00132; Number of positives ([4]; 24 hr): 37; Positive ratio ([4]; 24 hr): 0.00132
3 | QXL520-Pro-Leu-Gly-Met-Trp-Ser-Arg-Lys(5-FAM)-NH2 (QXL520-PLGMWSRK(5FAM)-NH2) [SB6] | 3.57E−05 | 1 | 3.57E−05 | 0.5449 | 11,797 | 0.4201 | 0.09454 | 2,533 | 0.09021 | 0.04778 | 1,310 | 0.04665 | 4.3e+10 | 2.1589 | 1.006 | 17,761 | 0.6343 | 52,130 ΔRFU | 37,893 ΔRFU | 57,158 ΔRFU | Fluorescence change after 1 hour of reaction at 30° C. [3]: 2,043 ΔRFU; Expected value λ (×1) ([4]; Example 36, 4 hr): 0.141; Extracellular vesicle concentration ([4]; Example 36, 4 hr): 2.819e+09 mL⁻¹; Expected value λ (×1) ([4]; Example 36, 24 hr): 0.09817; Extracellular vesicle concentration ([4]; Example 36, 24 hr): 1.963e+09 mL⁻¹; Expected value λ ([4]; 4 hr): 0.07048; Number of positives ([4]; 4 hr): 1,911; Positive ratio ([4]; 4 hr): 0.06806; Expected value λ ([4]; 24 hr): 0.04908; Number of positives ([4]; 24 hr): 1,345; Positive ratio ([4]; 24 hr): 0.0479
